Active and inactive are the calls of the source. No cut-off for these calls is given here.
Tests used:
[1] = (§1) Metabolic stability in rat plasma assessed as compound remaining after 60 mins; format: ADME, cell-free; settings: read-out: Stability
[2] = molecular target: Xanthine dehydrogenase/oxidase (Bos taurus, UniProt P80457)
Description: Inhibition of bovine xanthine oxidase-mediated uric acid production after 30 mins by spectrophotometric analysis

[3] = (§2) Metabolic stability in rat liver S9 fraction assessed as compound remaining after 60 mins; format: ADME, subcellular; settings: liver S9 fraction, read-out: Stability
Rattus norvegicus [4] = assay: Antihyperuricemic activity in po dosed rat assessed as reduction in potassium oxonate-induced serum uric acid level administered at 1 hr prior to potassium oxonate-challenge measured up to 5 hrs; format: functional
[5] = (§3) Metabolic stability in rat liver microsomes assessed as compound remaining after 60 mins; format: ADME, Microsome; settings: liver microsomes, read-out: Stability
Rattus norvegicus [6] = assay: AUClast in Sprague-Dawley rat assessed as 2-(4-(2-amino-6-hydroxypyrimidin-4-yl)-2-cyanophenoxy)-2-methylpropanoic acid level at 10 mg/kg, po; format: ADME, organism-based, Plasma; design: time 0 - last, dose 10 mg/kg, route oral; settings: in vivo
Rattus norvegicus [7] = assay: Cmax in Sprague-Dawley rat assessed as 2-(4-(2-amino-6-hydroxypyrimidin-4-yl)-2-cyanophenoxy)-2-methylpropanoic acid level at 10 mg/kg, po; format: ADME, organism-based; design: dose 10 mg/kg, route oral; settings: in vivo
Rattus norvegicus [8] = assay: Elimination half life in Sprague-Dawley rat assessed as 2-(4-(2-amino-6-hydroxypyrimidin-4-yl)-2-cyanophenoxy)-2-methylpropanoic acid level at 10 mg/kg, po; format: ADME, organism-based; design: dose 10 mg/kg, route oral; settings: in vivo
[9] = Tmax in Sprague-Dawley rat at 10 mg/kg, po; format: ADME, organism-based; design: dose 10 mg/kg, route oral; settings: in vivo
Rattus norvegicus [10] = assay: Tmax in Sprague-Dawley rat assessed as 2-(4-(2-amino-6-hydroxypyrimidin-4-yl)-2-cyanophenoxy)-2-methylpropanoic acid level at 10 mg/kg, po; format: ADME, organism-based; design: dose 10 mg/kg, route oral; settings: in vivo
[11] = Elimination half life in Sprague-Dawley rat at 10 mg/kg, po; format: ADME, organism-based; design: dose 10 mg/kg, route oral; settings: in vivo, read-out: beta t1/2 (converted)
[12] = AUClast in Sprague-Dawley rat at 10 mg/kg, po; format: ADME, organism-based; design: time 0 - last, dose 10 mg/kg, route oral; settings: plasma
[13] = (§4) Cmax in Sprague-Dawley rat at 10 mg/kg, po; format: ADME, organism-based; design: dose 10 mg/kg, route oral; settings: Sprague-Dawley, in vivo
Rattus norvegicus [14] = assay: Antihyperuricemic activity in rat assessed as reduction in potassium oxonate-induced serum uric acid level at 50 mg/kg, po administered at 1 hr prior to potassium oxonate-challenge measured up to 5 hrs relative to control; format: functional, organism-based; design: dose 50 mg/kg
[15] = Clearance in Sprague-Dawley rat at 2 mg/kg, iv; format: ADME, organism-based; design: dose 2 mg/kg, route intravenous; settings: in vivo
Rattus norvegicus [16] = assay: Antihyperuricemic activity in rat assessed as reduction in potassium oxonate-induced serum uric acid level at 10 mg/kg, po administered at 1 hr prior to potassium oxonate-challenge measured up to 5 hrs relative to allopurinol; format: functional; design: scale not given: the % may be the effect or the level left
[17] = Volume of distribution in Sprague-Dawley rat at 2 mg/kg, iv; format: ADME, organism-based; design: dose 2 mg/kg, route intravenous; settings: in vivo
[18] = Initial plasma concentration in Sprague-Dawley rat at 2 mg/kg, iv; format: ADME, organism-based; design: dose 2 mg/kg, route intravenous
[19] = Cmax in Sprague-Dawley rat at 2 mg/kg, iv; format: ADME, organism-based; design: dose 2 mg/kg, route intravenous; settings: in vivo
[20] = Elimination half life in Sprague-Dawley rat at 2 mg/kg, iv; format: ADME, organism-based; design: dose 2 mg/kg, route intravenous; settings: in vivo, read-out: beta t1/2 (converted)
[21] = AUClast in Sprague-Dawley rat at 2 mg/kg, iv; format: ADME, organism-based; design: time 0 - last, dose 2 mg/kg, route intravenous; settings: plasma
[22] = Oral bioavailability in Sprague-Dawley rat at 10 mg/kg; format: ADME, organism-based; settings: in vivo
[23] = Tmax in Sprague-Dawley rat at 2 mg/kg, iv; format: ADME, organism-based; design: dose 2 mg/kg, route intravenous; settings: in vivo
Rattus norvegicus [24] = assay: Antihyperuricemic activity in rat assessed as reduction in potassium oxonate-induced serum uric acid level at 30 mg/kg, po administered at 1 hr prior to potassium oxonate-challenge measured up to 5 hrs relative to allopurinol; format: functional; design: scale not given: the % may be the effect or the level left
Plasma = assay: as §1; format: ADME, cell-free; settings: 1 h
Liver = assay: as §2; format: ADME, subcellular; settings: s9, 1 h
Liver microsomes = assay: as §3; format: ADME, Microsome; settings: microsomes, 1 h
Rattus norvegicus [25] = assay: Cmax in Sprague-Dawley rat assessed as Methyl 4-((4-(2-amino-6-hydroxypyrimidin-4-yl)-2-cyanophenoxy)methyl)cyclohexanecarboxylate level at 10 mg/kg, po; format: ADME, organism-based; design: dose 10 mg/kg, route oral; settings: in vivo
Rattus norvegicus [26] = assay: AUClast in Sprague-Dawley rat assessed as Methyl 4-((4-(2-amino-6-hydroxypyrimidin-4-yl)-2-cyanophenoxy)methyl)cyclohexanecarboxylate level at 10 mg/kg, po; format: ADME, organism-based, Plasma; design: time 0 - last, dose 10 mg/kg, route oral; settings: in vivo
Rattus norvegicus [27] = assay: Elimination half life in Sprague-Dawley rat assessed as Methyl 4-((4-(2-amino-6-hydroxypyrimidin-4-yl)-2-cyanophenoxy)methyl)cyclohexanecarboxylate level at 10 mg/kg, po; format: ADME, organism-based; design: dose 10 mg/kg, route oral; settings: in vivo
Rattus norvegicus [28] = assay: Tmax in Sprague-Dawley rat assessed as Methyl 4-((4-(2-amino-6-hydroxypyrimidin-4-yl)-2-cyanophenoxy)methyl)cyclohexanecarboxylate level at 10 mg/kg, po; format: ADME, organism-based; design: dose 10 mg/kg, route oral; settings: in vivo
Rattus norvegicus [29] = assay: as §4; format: ADME, organism-based; design: dose 10 mg/kg, route oral; settings: in vivo, BLD = below limit of detection

Chain of Xanthine dehydrogenase/oxidase (P80457 whole entry): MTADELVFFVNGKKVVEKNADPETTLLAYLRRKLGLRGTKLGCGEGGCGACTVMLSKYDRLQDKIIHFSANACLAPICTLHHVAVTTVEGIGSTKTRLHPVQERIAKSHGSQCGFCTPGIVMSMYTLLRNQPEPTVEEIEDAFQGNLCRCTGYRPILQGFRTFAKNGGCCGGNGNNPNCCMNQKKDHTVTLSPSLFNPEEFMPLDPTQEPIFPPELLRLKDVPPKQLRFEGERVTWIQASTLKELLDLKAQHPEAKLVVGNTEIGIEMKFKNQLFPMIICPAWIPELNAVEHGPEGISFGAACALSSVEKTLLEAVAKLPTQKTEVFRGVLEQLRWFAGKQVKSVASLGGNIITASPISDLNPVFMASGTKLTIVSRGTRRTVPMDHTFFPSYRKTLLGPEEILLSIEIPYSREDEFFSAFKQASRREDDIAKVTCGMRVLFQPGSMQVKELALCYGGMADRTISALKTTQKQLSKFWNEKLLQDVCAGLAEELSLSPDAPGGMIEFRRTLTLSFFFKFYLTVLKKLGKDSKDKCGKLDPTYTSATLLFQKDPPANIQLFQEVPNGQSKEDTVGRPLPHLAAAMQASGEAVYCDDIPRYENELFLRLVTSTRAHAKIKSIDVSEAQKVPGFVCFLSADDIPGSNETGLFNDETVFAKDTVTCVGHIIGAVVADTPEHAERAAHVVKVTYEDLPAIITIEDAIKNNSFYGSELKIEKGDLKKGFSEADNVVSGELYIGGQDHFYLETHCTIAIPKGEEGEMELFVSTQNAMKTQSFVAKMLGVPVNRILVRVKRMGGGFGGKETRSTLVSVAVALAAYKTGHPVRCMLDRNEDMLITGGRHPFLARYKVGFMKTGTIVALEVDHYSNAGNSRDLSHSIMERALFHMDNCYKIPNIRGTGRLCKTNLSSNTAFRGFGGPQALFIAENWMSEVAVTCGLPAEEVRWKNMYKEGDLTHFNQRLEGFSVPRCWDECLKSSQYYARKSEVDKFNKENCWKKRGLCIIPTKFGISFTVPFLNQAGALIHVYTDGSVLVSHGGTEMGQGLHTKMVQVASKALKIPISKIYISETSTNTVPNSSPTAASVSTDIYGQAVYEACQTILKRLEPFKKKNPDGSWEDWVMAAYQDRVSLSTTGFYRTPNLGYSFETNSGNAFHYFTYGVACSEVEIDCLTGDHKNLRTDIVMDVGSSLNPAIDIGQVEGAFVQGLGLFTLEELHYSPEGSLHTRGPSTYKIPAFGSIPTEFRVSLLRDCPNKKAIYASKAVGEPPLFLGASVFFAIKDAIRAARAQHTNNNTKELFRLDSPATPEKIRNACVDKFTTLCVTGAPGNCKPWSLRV

## COC(=O)C1CCC(COc2ccc(-c3ccnc(N)n3)cc2C#N)CC1 (centres undefined)
[1]
  remaining at 1 h: 28%
[2]
  IC50: 10 nM
[3]
  remaining at 1 h: 11%
Rattus norvegicus [4]
  Activity: Active
[5]
  remaining at 1 h: 0%

## N#Cc1cc(-c2ccnc(N)n2)ccc1OCC1CCC1
[2]
  IC50: 400 nM

## N#Cc1cc(-c2ccnc(N)n2)ccc1OCc1ccc(F)cc1C(F)(F)F
[2]
  IC50: 80 nM

## N#Cc1cc(-c2cc(=O)[nH]c(N)n2)ccc1OCC1CCC1
[2]
  IC50: 18 nM

## COC(=O)C(C)(C)COc1ccc(-c2cc(=O)[nH]c(N)n2)cc1C#N
[1]
  remaining at 1 h: 30.2%
[2]
  IC50: 15 nM
[3]
  remaining at 1 h: 93.6%
Rattus norvegicus [6]
  AUClast: 22699.83 ng·h/mL
Rattus norvegicus [7]
  Cmax: 8460 nM
Rattus norvegicus [8]
  beta t1/2: 11.6 h
[9]
  Tmax: 0.75 h
Rattus norvegicus [10]
  Tmax: 4 h
[5]
  remaining at 1 h: 95.9%
[11]
  half-life: 2.04 h
[12]
  AUC(0-t): 44.8 ng·h/mL
[13]
  Cmax: 40 nM

## N#Cc1cc(-c2ccnc(N)n2)ccc1OCC1CCCCC1
[2]
  IC50: 50 nM

## N#Cc1cc(-c2ccnc(N)n2)ccc1OCc1ccc(F)cc1
[2]
  IC50: 150 nM

## CC(C)COc1ccc(-c2cc(O)ncn2)cc1C#N
Rattus norvegicus [14]
  Activity: Active

## CC(C)COc1ccc(-c2ccnc(N)n2)cc1C#N
[15]
  clearance: 10.7 mL/min/kg
[1]
  remaining at 1 h: 88.4%
[2]
  IC50: 80 nM
Rattus norvegicus [16]
  Activity: 49%
[17]
  Vd: 5.5 L/kg
[18]
  C0: 3720 ng/mL
[19]
  Cmax: 9940 nM
[20]
  half-life: 5.96 h
[3]
  remaining at 1 h: 71.3%
[9]
  Tmax: 0.75 h
Rattus norvegicus [4]
  Activity: Dose-dependent effect
  ED50: 10 mg/kg
[21]
  AUC(0-t): 2990 ng·h/mL
[22]
  bioavailability: 13.4%
[23]
  Tmax: 1.8 min
[5]
  remaining at 1 h: 21.2%
[11]
  half-life: 1.35 h
Rattus norvegicus [24]
  Activity: 70%
[12]
  AUC(0-t): 2000 ng·h/mL
[13]
  Cmax: 4190 nM

## N#Cc1cc(-c2ccnc(N)n2)ccc1OCc1ccccc1C(F)(F)F
[2]
  IC50: 60 nM

## CC(C)(C)COc1ccc(-c2cc(=O)[nH]c(N)n2)cc1C#N
[1]
  remaining at 1 h: 99.7%
[2]
  IC50: 4 nM
[9]
  Tmax: 0.5 h
[11]
  half-life: 10.7 h
[12]
  AUC(0-t): 297 ng·h/mL
[13]
  Cmax: 160 nM

## CC(C)COc1ccc(-c2cc(=O)[nH]cn2)cc1C#N
[1]
  remaining at 1 h: 90.5%
[2]
  IC50: 60 nM
[3]
  remaining at 1 h: 13.5%
[9]
  Tmax: 0.25 h
[5]
  remaining at 1 h: 49.6%
[11]
  half-life: 9.88 h
[12]
  AUC(0-t): 416 ng·h/mL
[13]
  Cmax: 1150 nM

## CC(C)(COc1ccc(-c2cc(O)nc(N)n2)cc1C#N)C(=O)O
[1]
  remaining at 1 h: 33.9%
[2]
  IC50: 5 nM
[3]
  remaining at 1 h: 98.9%
[5]
  remaining at 1 h: 90.2%
[11]
  half-life: 4 h
[12]
  AUC(0-t): 19500 ng·h/mL
[13]
  Cmax: 6600 nM

## N#Cc1cc(-c2cc(O)nc(N)n2)ccc1OCC1CCCCC1
[1]
  remaining at 1 h: 94%
[2]
  IC50: 10 nM
[3]
  remaining at 1 h: 86.8%
[9]
  Tmax: 1 h
[5]
  remaining at 1 h: 97.3%
[11]
  half-life: 18 h
[12]
  AUC(0-t): 109 ng·h/mL
[13]
  Cmax: 40 nM

## N#Cc1cc(-c2ccnc(N)n2)ccc1OCC1CCC(C(=O)O)CC1 (centres undefined)
Plasma
  Stability: Stable
[2]
  IC50: 10 nM
Liver
  Stability: Stable
Rattus norvegicus [4]
  Activity: Active
Liver microsomes
  Stability: Stable

## N#Cc1cc(-c2cc(=O)[nH]c(N)n2)ccc1OCc1ccc(F)cc1C(F)(F)F
[2]
  IC50: 11 nM

## CC(C)COc1ccc(-c2cc(=O)[nH]c(N)n2)cc1C#N
[1]
  remaining at 1 h: 96%
[18]
  C0: 1360 ng/mL
[3]
  remaining at 1 h: 65.6%
[22]
  bioavailability: 8.6%
[5]
  remaining at 1 h: 91.5%

## COC(=O)c1ccc(COc2ccc(-c3cc(O)nc(N)n3)cc2C#N)cc1
[2]
  IC50: 9 nM

## N#Cc1cc(-c2cc(O)nc(N)n2)ccc1OCc1ccc(F)cc1
[2]
  IC50: 7 nM

## N#Cc1cc(-c2cc(O)nc(N)n2)ccc1OCc1ccccc1C(F)(F)F
[2]
  IC50: 9 nM

## CC(C)(C)c1ccc(COc2ccc(-c3cc(=O)[nH]c(N)n3)cc2C#N)cc1
[2]
  IC50: 19 nM

## COC(=O)C(C)(C)COc1ccc(-c2cc(O)nc(N)n2)cc1C#N
Rattus norvegicus [14]
  Activity: Active

## COc1ccc(-c2cc(O)nc(N)n2)cc1C#N
[2]
  IC50: 160 nM

## CCC(CC)COc1ccc(-c2cc(=O)[nH]c(N)n2)cc1C#N
[2]
  IC50: 10 nM

## N#Cc1cc(-c2cc(=O)[nH]c(N)n2)ccc1OCC1CCC(C(=O)O)CC1 (centres undefined)
[1]
  remaining at 1 h: 106%
[2]
  IC50: 9 nM
[3]
  remaining at 1 h: 101%
[9]
  Tmax: 4 h
[5]
  remaining at 1 h: 90.6%
[12]
  AUC(0-t): 119 ng·h/mL
[13]
  Cmax: 50 nM

## Cc1nc(O)cc(-c2ccc(OCC(C)C)c(C#N)c2)n1
[2]
  IC50: > 30000 nM

## CC(C)COc1ccc(-c2cc(C(N)=O)nc(N)n2)cc1C#N
[2]
  IC50: 3900 nM

## COC(=O)C1CCC(COc2ccc(-c3cc(O)nc(N)n3)cc2C#N)CC1 (centres undefined)
Rattus norvegicus [25]
  Cmax: 340 nM
[1]
  remaining at 1 h: 0%
[2]
  IC50: 19 nM
Rattus norvegicus [26]
  AUClast: 795.24 ng·h/mL
[3]
  remaining at 1 h: 0%
Rattus norvegicus [14]
  Activity: Active
Rattus norvegicus [27]
  beta t1/2: 3.9 h
Rattus norvegicus [28]
  Tmax: 2 h
[5]
  remaining at 1 h: 0%
Rattus norvegicus [29]
  Cmax: BLD

## CC(C)COc1ccc(-c2cc(C(=O)O)nc(N)n2)cc1C#N
[2]
  IC50: 400 nM

## CC(C)C(C)Oc1ccc(-c2cc(O)nc(N)n2)cc1C#N (centres undefined)
[2]
  IC50: 13 nM

## N#Cc1cc(-c2cc(=O)[nH]c(N)n2)ccc1OCc1ccccc1
[2]
  IC50: 17 nM

## N#Cc1cc(-c2cc(=O)[nH]c(N)n2)ccc1OCc1ccc(C(=O)O)cc1
[2]
  IC50: 5 nM

Reference: ChEMBL document CHEMBL2321685, “Lead optimization of isocytosine-derived xanthine oxidase inhibitors” (Bioorg Med Chem Lett, 2013)
